Reference: PubChem BioAssay (NCI)
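48-hour exposure; five concentrations; linearly interpolated endpoints. The concentration for full growth arrest is given as TGI.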

Legend:
Test in all cases: inhibition of tumour cell growth, NCI panel, 48 h
[1] = system: SNB-19 CNS
[2] = system: CCRF-CEM leukemia
[3] = system: OVCAR-3 ovarian
[4] = system: UACC-62 melanoma
[5] = system: PC-3 prostate
[6] = system: SK-OV-3 ovarian
[7] = system: A498 renal
[8] = system: SK-MEL-28 melanoma
[9] = system: DU-145 prostate
[10] = system: HOP-92 NSCLC
[11] = system: OVCAR-8 ovarian
[12] = system: HCT-116 colon
[13] = system: UACC-257 melanoma
[14] = system: CAKI-1 renal
[15] = system: ACHN renal
[16] = system: COLO 205 colon
[17] = system: 786-0 renal
[18] = system: SF-539 CNS
[19] = system: MDA-MB-435
[20] = system: K-562 leukemia
[21] = system: NCI-H23 lung
[22] = system: T-47D breast
[23] = system: A549 NSCLC
[24] = system: HL-60(TB) leukemia
[25] = system: HOP-62 NSCLC
[26] = system: UO-31 renal
[27] = system: NCI-H226 lung
[28] = system: MALME-3M melanoma
[29] = system: NCI-H522 lung
[30] = system: TK-10 renal
[31] = system: OVCAR-4 ovarian
[32] = system: HS 578T breast
[33] = system: M14 melanoma
[34] = system: SN12C renal
[35] = system: HCC-2998 colon
[36] = system: MDA-MB-231 breast
[37] = system: SK-MEL-5 melanoma
[38] = system: OVCAR-5 ovarian
[39] = system: MDA-N
[40] = system: HCT-15 colon
[41] = system: SF-295 CNS
[42] = system: IGROV1 ovarian
[43] = system: RXF 393 renal
[44] = system: LOX IMVI melanoma
[45] = system: BT-549 breast
[46] = system: MCF7 breast
[47] = system: KM12 colon
[48] = system: U251 CNS
[49] = system: NCI/ADR-RES ovarian
[50] = system: SF-268 CNS
[51] = system: SR leukemia
[52] = system: HT29 colon
[53] = system: EKVX NSCLC
[54] = system: NCI-H460 lung
[55] = system: SW-620 colon
[56] = system: SNB-75 CNS
[57] = system: SK-MEL-2 melanoma
[58] = system: RPMI-8226 leukemia

Measured: TGI

CN(C)c1ccc(/C=C(\C#N)C(N)=C(C#N)C#N)cc1
> 100 µM: [1] | [2] | [3] | [4] | [5] | [6] | [7] | [8] | [9] | [10] | [11] | [12] | [13] | [14] | [15] | [16] | [17] | [18] | [19] | [20] | [21] | [22] | [23] | [24] | [25] | [26] | [27] | [28] | [29] | [30] | [31] | [32] | [33] | [34] | [35] | [36] | [37] | [38] | [39] | [40] | [41] | [42] | [43] | [44] | [45] | [46] | [47] | [48] | [49] | [50] | [51] | [52] | [53] | [54] | [55]

CCSCC(N)C(=O)O (stereo not given)
> 100 µM: [1] | [2] | [3] | [4] | [5] | [6] | [7] | [8] | [9] | [10] | [11] | [12] | [13] | [14] | [15] | [16] | [56] | [17] | [19] | [21] | [22] | [23] | [57] | [58] | [24] | [25] | [26] | [27] | [28] | [29] | [30] | [31] | [32] | [33] | [34] | [36] | [37] | [38] | [39] | [40] | [41] | [42] | [43] | [44] | [45] | [46] | [47] | [48] | [49] | [50] | [51] | [52] | [53] | [54] | [55]
